Laboratory results published in patent US10857153B2, “Pyrimidine compounds containing acidic groups” (Apros Therapeutics, Inc., priority 2018, dated 2020).

Tests used:
TLR7 = experiment: Pharmacodynamic experiment: serum IP-10 after intranasal dosing; format: in vivo; conditions: BALB/c mice, 60 micrograms intranasally, 5 hours
Description: IP-10 is a biomarker of TLR7 target activation. Higher production levels of IP-10 is an indication of higher target engagement in vivo. In this study, 3 BALB/c mice per group were dosed intranasally with 60 micrograms of Compound 1B, 2B, 3B, Compound 50 or AZD8848. The test compounds were formulated as a 1 mg/mL solution in 0.5% carboxy methycellulose. Animals were sacrificed after 5 hours. Serum IP-10 concentrations were measured using a commercial ELISA kit purchased from Meso Scale Discovery.

[1] = Formulation preparation and solubility examination; format: physicochemical; conditions: 1 mg/mL in 0.5% carboxy methycellulose in water, pH 6-7
Description: The resulting formulations were vortexed and stored at 4° C. before dosing.

[2] = system: CT26 cells stably expressing luciferase; experiment: CT26 metastatic lung cancer model; conditions: for median survival time: intranasal, in combination with anti-PD-L1, twice a week, 8 doses; for mean bioluminescence (tumor burden) versus anti-PD-L1 or anti-PD-L1 with Compound 50 or AZD8848: in combination with anti-PD-L1, for more than 20 days after injection of tumor cells
Description: To establish a lung cancer model, 5e5 CT26 cells stably expressing luciferase (Imanis Life Sciences) were injected intravenously into female Balb/c mice on Day 0. On Day 4 post challenge, mice were anesthetized and subjected to whole body bioluminescent imaging (IVIS; Perkin Elmer) to determine tumor burden and in vivo location. Mice with detectable lung tumors were enrolled into the study and randomized such that the average bioluminescence and variance is equivalent amongst all of the study groups. Animals were dosed twice a week for a total of 8 doses with the indicated treatments, and imaged weekly to determine total tumor burden over the course of the treatment.
The known TLR7 compound AZD8848 was used as a comparator and administered in combination with anti-PD-L1 to the mice. […] Each treatment group contained 10 mice.

human TLR7 = molecular target: T1, human TLR7 (Homo sapiens, UniProt Q9NYK1); experiment: HEK-TLR7 assay (HEK-Blue hTLR7 cells, SEAP reporter); format: cell-based; conditions: 16 h
T1 construct: host or cells: HEK293 (HEK-Blue™ hTLR7)
T1 sequence (Q9NYK1 27-1049): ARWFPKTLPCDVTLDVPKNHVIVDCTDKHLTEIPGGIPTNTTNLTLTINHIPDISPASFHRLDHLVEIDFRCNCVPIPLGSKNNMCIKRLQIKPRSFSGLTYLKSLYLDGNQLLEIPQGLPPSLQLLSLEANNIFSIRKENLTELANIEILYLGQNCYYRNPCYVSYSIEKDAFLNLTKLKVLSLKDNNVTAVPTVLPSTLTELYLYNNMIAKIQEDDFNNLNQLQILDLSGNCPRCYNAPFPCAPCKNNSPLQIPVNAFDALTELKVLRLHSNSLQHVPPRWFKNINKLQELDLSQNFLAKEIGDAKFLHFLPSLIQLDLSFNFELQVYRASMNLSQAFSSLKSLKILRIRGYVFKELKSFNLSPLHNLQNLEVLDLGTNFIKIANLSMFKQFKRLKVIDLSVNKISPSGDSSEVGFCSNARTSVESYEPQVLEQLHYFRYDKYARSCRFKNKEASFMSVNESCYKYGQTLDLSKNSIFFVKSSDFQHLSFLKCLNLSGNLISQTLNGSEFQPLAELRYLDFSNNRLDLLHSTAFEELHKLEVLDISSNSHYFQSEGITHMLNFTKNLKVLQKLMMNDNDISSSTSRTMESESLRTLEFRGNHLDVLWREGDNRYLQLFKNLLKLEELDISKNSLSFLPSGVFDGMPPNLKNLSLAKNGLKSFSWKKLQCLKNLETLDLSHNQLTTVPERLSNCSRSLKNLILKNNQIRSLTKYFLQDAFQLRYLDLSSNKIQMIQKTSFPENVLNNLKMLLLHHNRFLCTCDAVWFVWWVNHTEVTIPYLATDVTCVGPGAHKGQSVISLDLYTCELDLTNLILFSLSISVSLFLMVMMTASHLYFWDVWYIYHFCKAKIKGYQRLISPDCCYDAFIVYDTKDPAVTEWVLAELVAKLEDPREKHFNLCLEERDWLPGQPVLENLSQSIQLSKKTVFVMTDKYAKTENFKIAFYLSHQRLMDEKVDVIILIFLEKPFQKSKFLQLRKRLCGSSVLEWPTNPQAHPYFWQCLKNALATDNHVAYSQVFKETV
Text: HEK-Blue™ TLR7 cells were purchased from Invivogen (San Diego, Calif.). The following description was taken from the product information sheet.
“HEK-Blue™ hTLR7 cells are designed for studying the stimulation of human TLR7 (hTLR7) by monitoring the activation of NF-kB. HEK-Blue™ hTLR7 cells were obtained by co-transfection of the hTLR7 gene and an optimized secreted embryonic alkaline phosphatase (SEAP) reporter gene into HEK293 cells. The SEAP reporter gene is placed under the control of the IFN-b minimal promoter fused to five NF-kB and AP-1-binding sites. Stimulation with a TLR7 ligand activates NF-kB and AP-1 which induce the production of SEAP, which is detected by the HEK-Blue™ Detection cell culture medium.”
A typical assay protocol involved the following steps: • 1. Cells were cultured according to the product information sheet. • 2. 10 mM compound stock in DMSO were first diluted to 3 mM and then 3-fold serially diluted using DMSO to afford a 10-pt dilution. • 3. 3 μl of the diluted DMSO were added to 57 μl HEK-Blue™ Detection media for a further 20-fold dilution. • 4. 10 μl of the diluted compound in assay media were added into 40 μl cell culture (in HEK-Blue™ Detection media) in 384-well plate. Final cell concentration=8,000 cells per well. • 5. The plates were incubated at 37° C. in 5% CO2 for 16 h. SEAP was determined using a spectrophotometer at 620-655 nm.

Compound	mean serum IP-10 concentration (TLR7)	appearance of formulation (solubility) [1]	median survival time [2] [days]	EC50 (human TLR7) [nM]	mean bioluminescence (tumor burden) versus anti-PD-L1 or anti-PD-L1 with Compound 50 or AZD8848 [2]
CCCCOc1nc(N)c2[nH]c(=O)n(CCCN(CCCN3CCOCC3)Cc3cccc(CC(=O)OC)c3)c2n1 [AZD8848, reference compound]	96 pg/mL	turbid suspension	23	37	–
CCCC[C@@H](CCS(C)(=O)=O)Nc1nc(N)nc(CCC(=O)O)c1Cc1cc(Cc2nn[nH]n2)ccc1OC [Compound 1B, (S)-3-(5-(5-((2H-tetrazol-5-yl)methyl)-2-methoxybenzyl)-2-amino-6-((1-(methyl-sulfonyl)heptan-3-yl)amino)pyrimidin-4-yl)propanoic acid]	about 700 pg/mL	–	36	230	lower
CCCC[C@@H](CCO)Nc1nc(N)nc(CCC(=O)O)c1Cc1cc(CC(=O)O)ccc1OC [Compound 2B, (S)-3-(2-amino-5-(5-(carboxymethyl)-2-methoxybenzyl) -6-((1-hydroxyheptan-3-yl)amino)pyrimidin-4-yl)propanoic acid]	~150 pg/mL	–	32	270	lower
CCCC[C@@H](CCO)Nc1nc(N)nc(CCC(=O)O)c1Cc1cc(Cc2nn[nH]n2)ccc1OC [Compound 3B, (S)-3-(5-(5-((2H-tetrazol-5-yl)methyl)-2-methoxybenzyl)-2-amino-6-((1-hydroxyheptan-3-yl)amino)pyrimidin-4-yl)propanoic acid]	~1300 pg/mL	–	36	270	lower
CCCC[C@@H](CCS(C)(=O)=O)Nc1nc(N)nc(CCC(=O)O)c1Cc1cc(CC(=O)O)ccc1OC [Compound 50, reference compound]	125 pg/mL	clear	29	260	–
